The results in this text go back to patent US20110028559A1, “SUBSTITUTED FLUOROETHYL UREAS AS ALPHA 2 ADRENERGIC AGENTS” (priority 2007, published 2011).

The experiment concerns the target T1, Alpha 2C (Homo sapiens, UniProt P18825).
T1 sequence (P18825 1-462): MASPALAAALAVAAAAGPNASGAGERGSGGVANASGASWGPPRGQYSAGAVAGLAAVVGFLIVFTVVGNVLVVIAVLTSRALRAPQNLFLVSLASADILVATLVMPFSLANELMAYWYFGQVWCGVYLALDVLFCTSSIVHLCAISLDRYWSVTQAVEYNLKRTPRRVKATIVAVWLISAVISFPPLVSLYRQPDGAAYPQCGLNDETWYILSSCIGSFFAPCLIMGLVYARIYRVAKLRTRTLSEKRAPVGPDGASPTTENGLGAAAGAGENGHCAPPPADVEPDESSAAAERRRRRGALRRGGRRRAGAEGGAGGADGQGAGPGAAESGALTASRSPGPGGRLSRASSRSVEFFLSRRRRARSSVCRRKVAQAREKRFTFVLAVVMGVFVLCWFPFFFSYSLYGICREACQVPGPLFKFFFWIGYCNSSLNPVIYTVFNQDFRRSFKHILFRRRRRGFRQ
As to the kind of experiment: Alpha 2C adrenergic receptor functional activity (procedure of U.S. 60/911,442). The experiment is classed as cell-based. An excerpt: U.S. Provisional Patent Application Ser. No. 60/911,442, filed Apr. 12, 2007, describes the procedure used to obtain the data in the table below. That procedure is incorporated by reference herein.

Regarding `CCC[C@@H]1CCCC[C@H]1NC(=O)NCCF` [1-(2-Fluoro-ethyl)-3-(2R-propyl-1R-cyclohexyl)-urea], the “Alpha 2C EC50” value was “not active”.
